Results: ChEMBL document CHEMBL5543097, “Synthesis and structure-activity relationships of novel 14-membered 2-fluoro ketolides with structural modification at the C11 position” (Eur J Med Chem, 2024)
Values after ≈ are worked out from the molar mass of the structure shown.

How the values were obtained:
Haemophilus influenzae [1] = test: Antibacterial activity against Haemophilus influenzae HIN 20-18 assessed as inhibition of bacterial growth incubated for 20 to 24 hrs by CLSI based broth microdilution method; format: functional; conditions: time 20-24 hrs
Streptococcus pneumoniae [2] = test: Antibacterial activity against erythromycin-resistant Streptococcus pneumoniae SPN19-13 assessed as inhibition of visible bacterial growth incubated for 18 hrs by broth microdilution method; format: functional
Haemophilus influenzae [3] = test: Antibacterial activity against Haemophilus influenzae HIN 19-18 assessed as inhibition of bacterial growth incubated for 20 to 24 hrs by CLSI based broth microdilution method; format: functional; conditions: HIN 19-18, time 20-24 hrs
Haemophilus influenzae [4] = test: Antibacterial activity against Haemophilus influenzae HIN 19-15 assessed as inhibition of bacterial growth incubated for 20 to 24 hrs by CLSI based broth microdilution method; format: functional; conditions: time 20-24 hrs
Streptococcus agalactiae [5] = test: Antibacterial activity against erythromycin-resistant Streptococcus agalactiae 19-9 assessed as inhibition of visible bacterial growth incubated for 18 hrs by broth microdilution method; format: functional
Moraxella catarrhalis [6] = test: Antibacterial activity against Moraxella catarrhalis BCA 19-6 assessed as inhibition of bacterial growth incubated for 24 hrs by CLSI based broth microdilution method; format: functional; conditions: Moraxella catarrhalis, BCA 19-6, 24 h, read-out: MIC
[7] = test system: Staphylococcus epidermidis; test: Antibacterial activity against erythromycin-resistant Staphylococcus epidermidis 19-6 assessed as inhibition of visible bacterial growth incubated for 18 hrs by broth microdilution method; format: functional
[8] = test system: Staphylococcus epidermidis; test: Antibacterial activity against erythromycin-resistant Staphylococcus epidermidis 19-8 assessed as inhibition of visible bacterial growth incubated for 18 hrs by broth microdilution method; format: functional
[9] = test system: Staphylococcus epidermidis; test: Antibacterial activity against erythromycin-resistant Staphylococcus epidermidis 19-9 assessed as inhibition of visible bacterial growth incubated for 18 hrs by broth microdilution method; format: functional
[10] = test system: Staphylococcus epidermidis; test: Antibacterial activity against erythromycin-resistant Staphylococcus epidermidis 19-5 assessed as inhibition of visible bacterial growth incubated for 18 hrs by broth microdilution method; format: functional
Streptococcus pneumoniae [11] = test: Antibacterial activity against erythromycin-resistant Streptococcus pneumoniae SPN19-14 assessed as inhibition of visible bacterial growth incubated for 18 hrs by broth microdilution method; format: functional
Moraxella catarrhalis [12] = test: Antibacterial activity against Moraxella catarrhalis BCA 19-5 assessed as inhibition of bacterial growth incubated for 24 hrs by CLSI based broth microdilution method; format: functional
Streptococcus pneumoniae [13] = test: Antibacterial activity against erythromycin-resistant Streptococcus pneumoniae SPN19-8 assessed as inhibition of visible bacterial growth incubated for 18 hrs by broth microdilution method; format: functional
[14] = test system: Staphylococcus epidermidis; test: Antibacterial activity against erythromycin-resistant Staphylococcus epidermidis 19-4 assessed as inhibition of visible bacterial growth incubated for 18 hrs by broth microdilution method; format: functional
[15] = Cytotoxicity against mouse AML12 cells assessed as reduction in cell viability incubated for 48 hrs by MTT assay; format: toxicity, cell-based
Moraxella catarrhalis [16] = test: Antibacterial activity against Moraxella catarrhalis BCA 19-31 assessed as inhibition of bacterial growth incubated for 24 hrs by CLSI based broth microdilution method; format: functional; conditions: BCA 19-31, 24 h
Streptococcus pyogenes = test: Antibacterial activity against erythromycin-resistant Streptococcus pyogenes ATCC 19615 assessed as inhibition of visible bacterial growth incubated for 18 hrs by broth microdilution method; format: functional
[17] = test system: Staphylococcus epidermidis; test: Antibacterial activity against erythromycin-resistant Staphylococcus epidermidis 19-11 assessed as inhibition of visible bacterial growth incubated for 18 hrs by broth microdilution method; format: functional
Streptococcus pneumoniae [18] = test: Potency index, ratio of telithromycin MIC to test compound MIC for antibacterial activity against Streptococcus pneumoniae SPN19-14 assessed as inhibition of visible bacterial growth incubated for 18 hrs by broth microdilution method; format: functional
Streptococcus pneumoniae [19] = test: Potency index, ratio of telithromycin MIC to test compound MIC for antibacterial activity against Streptococcus pneumoniae SPN19-8 assessed as inhibition of visible bacterial growth incubated for 18 hrs by broth microdilution method; format: functional
Streptococcus agalactiae [20] = test: Antibacterial activity against erythromycin-resistant Streptococcus agalactiae 19-8 assessed as inhibition of visible bacterial growth incubated for 18 hrs by broth microdilution method; format: functional
Streptococcus pneumoniae [21] = test: Potency index, ratio of telithromycin MIC to test compound MIC for antibacterial activity against Streptococcus pneumoniae SPN19-13 assessed as inhibition of visible bacterial growth incubated for 18 hrs by broth microdilution method; format: functional
[22] = Moraxella catarrhalis, BCA 19-5, 24 h, read-out: MIC

| Compound | MIC (Haemophilus influenzae [1]) | MIC (Streptococcus pneumoniae [2]) | MIC (Haemophilus influenzae [3]) | MIC (Haemophilus influenzae [4]) | MIC (Streptococcus agalactiae [5]) | MIC (Moraxella catarrhalis [6]) | MIC [7] | MIC [8] | MIC [9] | MIC [10] | MIC (Streptococcus pneumoniae [11]) | MIC (Moraxella catarrhalis [12]; [22]) | MIC (Streptococcus pneumoniae [13]) | MIC [14] | CC50 at 48 h [15] | MIC (Moraxella catarrhalis [16]) | MIC (Streptococcus pyogenes) | MIC [17] | further results |
| --- | --- | --- | --- | --- | --- | --- | --- | --- | --- | --- | --- | --- | --- | --- | --- | --- | --- | --- | --- |
| CC[C@H]1OC(=O)[C@@](C)(F)C(=O)[C@H](C)[C@@H](O[C@@H]2O[C@H](C)C[C@H](N(C)C)[C@H]2O)[C@](C)(OC)C[C@@H](C)C(=O)[C@H](C)[C@H]2N(CCCOC(=O)Nc3ccc(-c4ncccn4)cc3)C(=O)O[C@]12C | > 16 µg/mL | 0.5 µg/mL (≈ 0.564 µM) | 16 µg/mL (≈ 18.1 µM) | 14 µg/mL (≈ 15.8 µM) | 4 µg/mL (≈ 4.51 µM) | 45 µg/mL (≈ 50.8 µM) | 0.125 µg/mL (≈ 0.141 µM) | 0.125 µg/mL (≈ 0.141 µM) | 0.125 µg/mL (≈ 0.141 µM) | < 0.03 µg/mL | 0.25 µg/mL (≈ 0.282 µM) | 0.25 µg/mL (≈ 0.282 µM) | 0.25 µg/mL (≈ 0.282 µM) | 0.06 µg/mL (≈ 0.0677 µM) | 20.4 µM | 0.25 µg/mL (≈ 0.282 µM) | < 0.03 µg/mL | < 0.03 µg/mL | – |
| CC[C@H]1OC(=O)[C@@](C)(F)C(=O)[C@H](C)[C@@H](O[C@@H]2O[C@H](C)C[C@H](N(C)C)[C@H]2O)[C@](C)(OC)C[C@@H](C)C(=O)[C@H](C)[C@H]2N(CCCOC(=O)Nc3cccc(C)c3C)C(=O)O[C@]12C | 16 µg/mL (≈ 19.1 µM) | 0.06 µg/mL (≈ 0.0718 µM) | 8 µg/mL (≈ 9.57 µM) | 8 µg/mL (≈ 9.57 µM) | 1 µg/mL (≈ 1.2 µM) | 0.125 µg/mL (≈ 0.15 µM) | 0.03 µg/mL (≈ 0.0359 µM) | < 0.03 µg/mL | 0.125 µg/mL (≈ 0.15 µM) | < 0.03 µg/mL | 0.06 µg/mL (≈ 0.0718 µM) | 0.125 µg/mL (≈ 0.15 µM) | 0.125 µg/mL (≈ 0.15 µM) | 0.03 µg/mL (≈ 0.0359 µM) | 26 µM | 0.125 µg/mL (≈ 0.15 µM) | < 0.03 µg/mL | 0.03 µg/mL (≈ 0.0359 µM) | – |
| CC[C@H]1OC(=O)[C@@](C)(F)C(=O)[C@H](C)[C@@H](O[C@@H]2O[C@H](C)C[C@H](N(C)C)[C@H]2O)[C@](C)(OC)C[C@@H](C)C(=O)[C@H](C)[C@H]2N(CCCOC(=O)Nc3ccc(C)cc3)C(=O)O[C@]12C | – | < 0.03 µg/mL | 8 µg/mL (≈ 9.73 µM) | 8 µg/mL (≈ 9.73 µM) | 0.25 µg/mL (≈ 0.304 µM) | – | < 0.03 µg/mL | < 0.03 µg/mL | 0.125 µg/mL (≈ 0.152 µM) | < 0.03 µg/mL | < 0.03 µg/mL | 0.03 µg/mL (≈ 0.0365 µM) | 0.06 µg/mL (≈ 0.073 µM) | < 0.03 µg/mL | 83.2 µM | – | < 0.03 µg/mL | < 0.03 µg/mL | Ratio (Streptococcus pneumoniae [18]): <4; Ratio (Streptococcus pneumoniae [19]): <4; MIC (Streptococcus agalactiae [20]): < 0.03 µg/mL; MIC (Moraxella catarrhalis [12]; 24 h): <0.03 µg/mL; Ratio (Streptococcus pneumoniae [21]): <4 |
| CC[C@H]1OC(=O)[C@@](C)(F)C(=O)[C@H](C)[C@@H](O[C@@H]2O[C@H](C)C[C@H](N(C)C)[C@H]2O)[C@](C)(OC)C[C@@H](C)C(=O)[C@H](C)[C@H]2N(CCCOC(=O)Nc3ccc(Cl)cc3C)C(=O)O[C@]12C | 16 µg/mL (≈ 18.7 µM) | 0.125 µg/mL (≈ 0.146 µM) | 4 µg/mL (≈ 4.67 µM) | 8 µg/mL (≈ 9.34 µM) | 0.5 µg/mL (≈ 0.584 µM) | 0.25 µg/mL (≈ 0.292 µM) | 0.125 µg/mL (≈ 0.146 µM) | 0.125 µg/mL (≈ 0.146 µM) | < 0.03 µg/mL | < 0.03 µg/mL | 0.125 µg/mL (≈ 0.146 µM) | 0.125 µg/mL (≈ 0.146 µM) | 0.25 µg/mL (≈ 0.292 µM) | 0.03 µg/mL (≈ 0.035 µM) | 12.8 µM | 0.125 µg/mL (≈ 0.146 µM) | < 0.03 µg/mL | 0.06 µg/mL (≈ 0.0701 µM) | – |
| CC[C@H]1OC(=O)[C@@](C)(F)C(=O)[C@H](C)[C@@H](O[C@@H]2O[C@H](C)C[C@H](N(C)C)[C@H]2O)[C@](C)(OC)C[C@@H](C)C(=O)[C@H](C)[C@H]2N(CCCOC(=O)Nc3ccccc3Cl)C(=O)O[C@]12C | 16 µg/mL (≈ 19 µM) | 0.25 µg/mL (≈ 0.297 µM) | 8 µg/mL (≈ 9.5 µM) | 8 µg/mL (≈ 9.5 µM) | 1 µg/mL (≈ 1.19 µM) | 0.5 µg/mL (≈ 0.594 µM) | 0.125 µg/mL (≈ 0.148 µM) | 0.125 µg/mL (≈ 0.148 µM) | 0.25 µg/mL (≈ 0.297 µM) | < 0.03 µg/mL | 0.25 µg/mL (≈ 0.297 µM) | 0.25 µg/mL (≈ 0.297 µM) | 0.25 µg/mL (≈ 0.297 µM) | 0.06 µg/mL (≈ 0.0712 µM) | 36.2 µM | 1.12 µg/mL (≈ 1.34 µM) | < 0.03 µg/mL | < 0.06 µg/mL | – |
| CC[C@H]1OC(=O)[C@@](C)(F)C(=O)[C@H](C)[C@@H](O[C@@H]2O[C@H](C)C[C@H](N(C)C)[C@H]2O)[C@](C)(OC)C[C@@H](C)C(=O)[C@H](C)[C@H]2N(CCCOC(=O)Nc3cccc(F)c3C)C(=O)O[C@]12C | 16 µg/mL (≈ 19 µM) | 0.125 µg/mL (≈ 0.149 µM) | 4 µg/mL (≈ 4.76 µM) | 8 µg/mL (≈ 9.52 µM) | 0.5 µg/mL (≈ 0.595 µM) | 0.45 µg/mL (≈ 0.536 µM) | 0.125 µg/mL (≈ 0.149 µM) | 0.06 µg/mL (≈ 0.0714 µM) | 0.5 µg/mL (≈ 0.595 µM) | < 0.03 µg/mL | 0.125 µg/mL (≈ 0.149 µM) | 0.125 µg/mL (≈ 0.149 µM) | 0.25 µg/mL (≈ 0.298 µM) | 0.06 µg/mL (≈ 0.0714 µM) | 36.7 µM | 0.06 µg/mL (≈ 0.0714 µM) | < 0.03 µg/mL | < 0.03 µg/mL | – |
